The values that follow come from article PMC5794828, “A novel galactolipase from a green microalga Chlorella kessleri: purification, characterization, molecular cloning, and heterologous expression” (Applied Microbiology and Biotechnology, 2018).

A word on the Km: it is the concentration of substrate that gives half-maximal velocity.

One experiment has as its target T1, rckGL (recombinant ckGL) (Parachlorella kessleri, UniProt A0A2Z5TTR4).
T1 construct: gene chGL; His-tag and trigger factor cut off with factor Xa; ~53 kDa
T1 sequence (A0A2Z5TTR4 61-535): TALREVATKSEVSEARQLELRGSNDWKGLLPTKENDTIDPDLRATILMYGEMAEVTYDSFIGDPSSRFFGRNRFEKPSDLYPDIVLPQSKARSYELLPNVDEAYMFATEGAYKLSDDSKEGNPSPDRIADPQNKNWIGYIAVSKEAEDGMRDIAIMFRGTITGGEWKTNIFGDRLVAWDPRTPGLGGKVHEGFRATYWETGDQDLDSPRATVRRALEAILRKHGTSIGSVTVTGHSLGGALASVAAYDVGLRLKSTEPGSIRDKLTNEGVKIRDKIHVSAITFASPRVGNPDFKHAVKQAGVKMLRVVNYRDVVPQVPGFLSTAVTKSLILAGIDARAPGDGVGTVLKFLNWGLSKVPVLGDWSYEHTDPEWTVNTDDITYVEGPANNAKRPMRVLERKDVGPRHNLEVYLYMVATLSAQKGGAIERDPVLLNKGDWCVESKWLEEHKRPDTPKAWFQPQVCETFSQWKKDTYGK
Description: free fatty acid release (NEFA C kit, A550), nonlinear regression. Format: biochemical. The settings on record: pH 6.5 MES-NaOH, 37 °C, 2 mM CaCl2, 0.3% (w/v) Triton X-100; substrate is an acyl-chain mixture; read-out: apparent Km.

For experiment [1], the target named is T2, ckGL (purified native galactolipase) (Parachlorella kessleri, UniProt A0A2Z5TTR4).
T2 construct: gene chGL; native, purified from C. kessleri cells; N-terminus TALREVATKSEVSEA; ~53 kDa; in Triton X-100
T2 sequence (A0A2Z5TTR4 61-535): T1 sequence (A0A2Z5TTR4 61-535)
Description: free fatty acid release (NEFA C kit, A550), Lineweaver-Burk linear regression. It is filed as biochemical. The settings on record: pH 6.5 MES-NaOH, 37 °C, 2 mM CaCl2, 0.3% (w/v) Triton X-100; substrate is an acyl-chain mixture; read-out: apparent Km.

“1,2-diacyl-3-O-(α-D-galactosyl1-6)-β-D-galactosyl-sn-glycerol [DGDG]”: the figures for the Km (at rckGL (recombinant ckGL); in experiment [1]) were 540 ± 110 µM and 1050 ± 480 µM, respectively.
